Columns and labels:
intestinal stem cells [1] = assay: mRNA expression (qPCR) of ChgA and other lineage markers in differentiated intestinal stem cells; type: cell-based, mouse; conditions: for EEC marker ChgA expression / expression of markers for K cell (Gip), L cell (Gcg), and I cell (Cck): 5 days 2-step protocol, Tubastatin A in step 1, Tranylcypromine in both steps; for expression of Goblet cell marker (Muc2) and Paneth cell marker (Lyz1): 24-well validation; for expression of enteroendocrine cell marker ChgA: multiple conditions (FIG. 6)
Description: “mRNA ChgA Expression Assay” refers to an assay used to determine the relative ChgA mRNA expression level in a cell population. For example, the assay can determine ChgA mRNA expression level of a differentiated cell population following treatment with agents being tested, as compared to an untested population of post-natal stem cells. In an example of an mRNA ChgA Expression Assay, the cells were collected and the RNA is extracted from the cells using an RNA extraction kit (such as RNeasy Mini kit, Qiagen). The ChgA expression level is then assessed by Quantitative real-time PCR using a one-step qPCR kit (such as QuantiTech Probe PCR kit, Qiagen) and ChgA primers and probes (such as commercially available Taqman probe for mouse ChgA, Life Technologies).
(§1) Organoids or differentiated cells were harvested and RNA was extracted using RNeasy Micro Kit (Qiagen) according to the manufacturer's instruction. Quantitative real-time PCR was performed with QuantiTect Probe PCR kit (Qiagen) using commercially available primers and TaqMan probes (Life Technologies).
Cells were then cultured with EGF, Noggin, and DAPT (END), as well as small molecules. After 2-3 days of differentiation, the cells lysed and ChgA expression was measured by qRT-PCR.
Small molecules were further validated using a 24-well plate culture and the differentiation system. […] The expression of markers of secretory lineage cells including goblet cells (Muc2), enteroendocrine cells (ChgA), and Paneth cells (Lyz1) were measured.

intestinal stem cells [2] = assay: Ngn3 mRNA expression during EEC differentiation; type: cell-based, mouse
Description: “Ngn3 Assay” as used herein is an assay used to determine the extent of expression of Ngn3 in cells, such as cells subjected to a differentiation protocol. In an exemplary Ngn3 Assay, RNA is isolated from cells that have been cultured according to a differentiation protocol, and quantitative real-time PCR is performed using commercially available primers and probes (such as Taqman probes) to determine an extent of Ngn3 expression in the cells.
as §1
There has been prior speculation that Ngn3 positive secretory progenitors differentiate to EECs (Genes Dev. 2002).

intestinal stem cells [3] = assay: ChgA immunostaining of EEC differentiation from intestinal stem cells; type: cell-based, mouse; conditions: organoid culture (ENR) with Notch inhibitor DAPT (ENRD)
Description: “ChgA Immunostaining Assay” as used herein is an assay used to determine the fraction of cells in a cell population that express ChgA by an immunostaining method. In an example of a ChgA immunostaining assay, a cell culture medium in which a cell population has been treated is removed, and the sample is washed with PBS. Organoids or cell colonies cultured in Matrigel are fixed directly by adding 4% PFA and incubating for 20 mins at room temperature. The Matrigel is then mechanically disrupted, and the cells are transferred to BSA-coated Eppendorf tubes. Samples are washed with PBS, permeabilized with 0.25% Triton X-100 for 30 minutes, and stained with primary antibody against Chromogranin A (e.g. anti-chromogranin A, sc-13090, Santa Cruz) and appropriate secondary antibodies (e.g. Alexa Fluor conjugated secondary antibodies, such as Alexa Fluor 594 conjugated Donkey anti-Rabbit antibody, A-21207; Life Technologies). Images are acquired by confocal microscopy.
Differentiated cell colonies were collected by gently pipetting into a 1.5 ml protein Lobind Eppendorf tube. Cell culture medium was removed, and samples were washed with PBS. Organoids or cell colonies cultured in Matrigel were fixed by directly adding 4% PFA and incubating for 10-30 min at room temperature. Matrigel was then mechanically disrupted, and cells were transferred into BSA-coated Eppendorf tubes. […]

[4] = system: gastrointestinal stem cells; assay: Insulin / Nkx6.1 mRNA expression (qPCR), 3-stage conversion to insulin producing cells; type: cell-based, mouse
Description: “mRNA Insulin Expression Assay” refers to an assay used to determine the relative insulin mRNA expression level of a cell population. For example, the assay can determine the insulin mRNA level expressed in a cell population treated to increase the expression of insulin in the cells, as compared to an untreated population of cells. In an exemplary mRNA Insulin Expression Assay, the cells were collected and the RNA is extracted from the cells using an RNA extraction kit (such as RNeasy Mini kit, Qiagen). The insulin expression level is then assessed by Quantitative real-time PCR using a one-step qPCR kit (such as QuantiTech Probe PCR kit, Qiagen) and Ins1 or Ins2 primers and probes (such as the commercially available TaqMan probe for mouse Ins1 and Ins2, Life Technologies). The relative insulin mRNA expression can be determined relative to a baseline or other marker, such as Hprt mRNA expression level or other baseline marker.
as §1
Based on the protocol to convert gastrointestinal stem cells into insulin producing cells, a 3-stage process was developed, specifically, Day 0-1 as Stage 1, Day 1-3 as Stage 2, Day 3-5 as Stage 3. After Stage 3, the cells turn on significant level of Insulin expression as indicated by Ins-EGFP expression and qPCR for Insulin mRNA expression. Optionally, the cells can be further cultured for 1-2 weeks, as Stage 4. For each stage, a set of specific combination of small molecules (and/or growth factors) were added. The objective was to optimize the reprogramming protocol to increase insulin expression, specifically Insulin mRNA expression for each stage, by screening and testing new small molecules (or growth factors).

[5] = system: differentiated cell colonies; conditions: for effect of removal: continuing culture of Islet-like Insulin expression cell colonies
[6] = system: differentiated intestinal stem cells; assay: Insulin-GFP reporter expression (FACS) in differentiated intestinal stem cells; type: cell-based, mouse
Description: “Insulin Activity Assay” as used herein is an assay used to determine the extent to which insulin gene transcription, translation or insulin release has been activated in a cell population. In an exemplary Insulin Activity Assay, the initial cells are isolated from the intestine of an Insulin-GFP mouse such as […] mouse (also referred to as the MIT-GFP mouse, Jackson lab stock no.: 006864). Intestinal crypts are isolated from the proximal half of the intestine. […] The cells are then passaged for 1-2 times to create a starting cell population for the assay. To test the capacity of agents to activate insulin gene transcription, translation or insulin release, the cells are incubated with appropriate culture media (e.g. aforementioned crypt culture media), growth factors and/or other agents being tested. Appropriate culture media, including crypt culture media as well as the agents being assessed, are added into each well and incubated with the cells for a period of 2-10 days with media change every 2 days. The fraction of insulin-GFP positive cells (i.e., cells in which the insulin-GFP reporter is activated) can be quantified using a flow cytometer to measure the fraction of GFP+ cell population present in the total cell population. Also, the average insulin activity of a cell population can be measured by measuring the average mRNA expression level of insulin of the population normalized using suitable references or housekeeping genes (e.g., using mRNA expression of Hprt as a baseline).

[7] = ENRD conditions, 2 days of differentiation
[8] = 96-well screening, END conditions, 2-3 days
[9] = 2 days, added after removal of R-spondin1
[10] = added in step 1 only versus both steps

N[C@@H]1C[C@H]1c1ccccc1 (racemic) [Tranylcypromine]
expression of Goblet cell (Muc2) and Paneth cell (Lyz1) markers (intestinal stem cells [1]; 2-step protocol, 5 days): significantly decreased | EEC marker ChgA expression (intestinal stem cells [1]): increased | expression of markers for K cell (Gip), L cell (Gcg), and I cell (Cck) (intestinal stem cells [1]): also increased | ChgA expression (intestinal stem cells [1]; [7]): increased | Ngn3 expression (intestinal stem cells [2]; [7]): increase

O=C(NC[C@H](O)CO)c1ccncc1Nc1ccc(I)cc1F [AS703026]
expression of Goblet cell marker (Muc2) and Paneth cell marker (Lyz1) (intestinal stem cells [1]; END conditions): not similarly increased | ChgA expression (intestinal stem cells [1]; [8]): increased | expression of enteroendocrine cell marker ChgA (intestinal stem cells [1]): specifically increased | Ngn3 expression (intestinal stem cells [2]; [9]): further decreased

C[C@H](NC(=O)Cc1cc(F)cc(F)c1)C(=O)N[C@H](C(=O)OC(C)(C)C)c1ccccc1 [DAPT, N—[N-(3,5-Difluorophenacetyl)-L-alanyl]-S-phenylglycine t-butyl ester]
stem cells turned into EECs (intestinal stem cells [3]): 5%-10% | concentration of highest activity / optimal concentration in promoting Insulin expression ([4]; dose response): 5 µM | effect of removal [5]: could be removed without much influence

COc1cc2ncnc(Nc3ccc(F)c(Cl)c3)c2cc1OCCCN1CCOCC1 [Gefitinib]
expression of Goblet cell marker (Muc2) and Paneth cell marker (Lyz1) (intestinal stem cells [1]; END conditions): not similarly increased | ChgA expression (intestinal stem cells [1]; [8]): increased | expression of enteroendocrine cell marker ChgA (intestinal stem cells [1]): specifically increased | Ngn3 expression (intestinal stem cells [2]; [9]): further decreased

O=C(NOC[C@H](O)CO)c1ccc(F)c(F)c1Nc1ccc(I)cc1F [PD0325901, N-[(2R)-2,3-Dihydroxypropoxyl]-3,4-difluoro-2-[(2-fluoro-4-iodophenyl)amino]-benzamide]
expression of Goblet cell marker (Muc2) and Paneth cell marker (Lyz1) (intestinal stem cells [1]; END conditions): not similarly increased | expression of enteroendocrine cell marker ChgA (intestinal stem cells [1]): specifically increased | Ngn3 expression (intestinal stem cells [2]; [9]): further decreased | effect of removal [5]: could be removed without much influence

CN1CCc2c(c3ccccc3n2Cc2ccc(C(=O)NO)cc2)C1.Cl [Tubastatin A, N-Hydroxy-4-(2-methyl-1,2,3,4-tetrahydro-pyrido[4,3-b]indol-5-ylmethyl)benzamide hydrochloride]
EEC marker ChgA expression (intestinal stem cells [1]): increased | expression of markers for K cell (Gip), L cell (Gcg), and I cell (Cck) (intestinal stem cells [1]): also increased | ChgA expression (intestinal stem cells [1]; [7]): decreased | Ngn3 expression (intestinal stem cells [2]; [7]): increase

Cc1cccc(-c2n[nH]cc2-c2ccc3ncccc3n2)n1 [compound 616452, 2-[3-(6-methyl-2-pyridinyl)-1H-pyrazol-4-yl]-1,5naphthyridine]
expression of mature EEC markers (Gcg, Gip, Cck, Tph1, Sst, Sct, Pyy) (intestinal stem cells [1]; 2-step protocol): greatly increased | goblet cell marker Muc2 expression (intestinal stem cells [1]; 2-step protocol): decreased | Cck expression over the expression level in the ENR condition (intestinal stem cells [1]; 2-step protocol with Repsox): 430 × | Gip expression over the expression level in the ENR condition (intestinal stem cells [1]; 2-step protocol with Repsox): 800 × | Pyy expression over the expression level in the ENR condition (intestinal stem cells [1]; 2-step protocol with Repsox): 15,000 × | Sct expression over the expression level in the ENR condition (intestinal stem cells [1]; 2-step protocol with Repsox): 300 × | Tph1 expression over the expression level in the ENR condition (intestinal stem cells [1]; 2-step protocol with Repsox): 120 × | ChgA level (intestinal stem cells [1]; [10]): comparable level | expression of mature EEC markers (intestinal stem cells [1]; [10]): greatly reduced | ChgA expression (intestinal stem cells [1]; added in step 2 of 2-step protocol): greatly promoted | expression of functional EEC markers such as Gip, Gcg, Cck, Pyy (intestinal stem cells [1]; relative to reference gene Hprt): greatly increase | optimal concentration in inducing insulin-GFP expression ([6]; dose response, day 5): 5 µM | cells becoming GFP positive ([6]; during EEC differentiation from ISCs): about 1% | Insulin mRNA (Ins2) ([4]; added in Stage 1-3 compared with Stage 2-3): increased | optimal dose in promoting Insulin and Nkx6.1 expression ([4]; dose response): 10 to 15 µM | cell death in the culture [5]: induced cell death

— US11021687B2, “Production of differentiated enteroendocrine cells and insulin producing cells” (Massachusetts Institute of Technology, priority 2016, dated 2021)
